Data set [1] is described as follows: Solid state stability under ambient conditions, analysed by UV-Vis spectroscopy. It is filed as physicochemical. As to conditions: room temperature, ambient air and light, five months. Here is the method: Stability evaluation of each compound in its solid state stored under ambient conditions was performed.
Data set [2] relates to Staphylococcus aureus biofilms. As to the kind of experiment: S. aureus antibiofilm assay (log-reduction vs no treatment control). It is filed as cell-based.
Method: Briefly, S. aureus biofilms were grown on sterile gauze at 37° C. for 72 hours (gauze was re-inoculated with S. aureus at 24 hours and 48 hours). After incubation, the gauze was rinsed with sterile water and placed onto Mueller Hinton agar (MHA) plates. The compound was dissolved in aqueous (RO water) solution at a concentration of 0.4 mg Ag/cm^2 or 10 mg Ag per 5×5 cm testing and placed on top of the gauze. The plates were incubated for 6 hours at 37° C. The remaining solution containing metal complexes was removed from the biofilm and the biofilm/gauze was neutralized in 10 mL of sodium thioglycolate. The bacteria were agitated to remove them from the gauze and the resulting bacterial suspensions were diluted and spread onto MHA plates which were incubated for 18-24 hours at 37° C. and the resulting viable bacterial colonies were enumerated. The log-reduction of S. aureus was calculated relative to the reduction achieved in the “no treatment” negative control samples. Results represent the average of triplicate data. The assay was repeated upon the aged solid state at a shelf life of 5 months (FIGS. 4A-B).
The nature of data set [3]: Acid-base titration curve (equivalence points). The format is physicochemical. The conditions noted are these: FIG. 1, inflection points of the curve; listed as JN300118-1. The text has this:
In the various embodiments, sufficient concentrations of the acid or base to transform the first oxidized metal complex into the desired second oxidized metal complex may be determined using acid-base titration. As used herein, the term “acid-base titration” refers to a method of quantitative analysis for determining the concentration of an acid or base by exactly neutralizing it with a standard solution of base or acid having known concentration. A pH indicator may be used to monitor the progress of the acid-base reaction. An acid-base titration curve may be plotted on a graph to show the changes in the pH upon addition of acid or base. As shown for example in FIG. 1, the curve falls near equivalence points (inflection points of the curve). The quantity of acid or base required to reach each equivalence point (e.g., FIG. 1, pH 11.3, 5.7) may be identified from the graph.
At each equivalence point or corresponding pH, the first oxidized metal complex may be transformed into a different second oxidized metal complex. […]

The mark [4] stands for this setting: S. aureus biofilm on gauze, 0.4 mg Ag/cm^2 in RO water, 6 hours at 37° C.

Values joined by “and” are separate entries in the source; they are usually repeats but may differ in a detail not shown here. Identical values can stand only once.

The record followed here is patent US12410064B2, “Preparation of soluble compounds” (EXCITON PHARMA CORP., priority 2019, dated 2025).

Consider “diperiodatoargentate potassium salt [JN300518-2a]”, for which, in data set [1], the solid state stability entry is “bright red crystals, solid state stability,”.

Turning to “Sodium diperiodatoargentate Na5Ag(IO5OH)216H2O [JN091118-2, reference compound]”, the antimicrobial activity entry in data set [2] (S. aureus biofilm as Example 2, but semi-solid formulation (about 0.083 g) dissolved into RO water (1 mL), 0.4 mg Ag/cm^2) is “Atkinson, antimicrobial activity, yield”.

As to `[Ag+].[Ag+].[Ag+].[Ag+].[Ag+].[O-][I+]([O-])([O-])([O-])([O-])[O-]` [JN111018-3, Pentasilver periodate, reference compound], the antimicrobial activity entry in data set [2] (setting [4]) was “antimicrobial activity, yield”. Same read-out and setting: with K5-3H0-2Ag(IO5OH)2 [JN150618-3] the entry was “bright red crystals, antimicrobial activity”. K4-1H1-4Ag(IO5OH)2O [JN301118-1]: the “equivalence point of acid-base titration curve” value in data set [3] was 11.3 pH and 5.7 pH.
